Active and inactive are the calls of the source. No cut-off for these calls is given here.
The compounds below were run on Candida albicans (assay: Antifungal activity against Candida albicans).
Assay type: functional, organism-based
`CCC(C)CCCCCC/C=C\CC/C=C\CCCC(=O)OC` (centres undefined) was tested, and the Activity was “inactive”. With `C[C@@]1(CCCCCCCCCCc2ccccc2)C[C@]2(C)OC(=O)C[C@@H]2OO1` the Activity was “inactive”. For `CC/C=C\C/C=C/C=C/CCCCCC[C@@]1(C)C[C@](C)(CC(=O)O)OO1` (relative stereo), the Activity was “inactive”. In the case of `CC/C=C\C/C=C/C=C/CCCCCC[C@@]1(C)C[C@](C)(CC(=O)OC)OO1` (relative stereo), the Activity is reported as “inactive”.

From ChEMBL document CHEMBL1151329, “New cyclic peroxides from the Philippine sponge Plakinastrella sp” (J Nat Prod, 1998)
